Literature values as cited in US20100093842A1, “Laulimalide Analogs and Uses Thereof” (EISAI CO. LTD., priority 2003, published 2010).

What was measured:
[1] = system: several cancer lines
[2] = system: multi-drug resistant (MDR) cell lines that over express the P-glycoprotein pump (P-gp); details: cell lines over expressing P-gp
[3] = system: tubulin; details: low micromolar concentrations; compared with equivalent concentrations of Laulimalide

| Compound | in vitro anti-mitotic activity ([1]; in vitro) [nM] | cytotoxic activity ([1]; several cancer lines) | activity against multi-drug resistant (MDR) cell lines [2] | rate of polymerization [3] | tubulin polymer formed [3] |
| --- | --- | --- | --- | --- | --- |
| C=C1C[C@H](C)C[C@@H]2CC=C[C@@H](C/C=C\C(=O)O[C@H]([C@@H](O)/C=C/[C@@H]3CC(C)=CCO3)C[C@@H]3O[C@H]3[C@@H](O)C1)O2 [Laulimalide] | 5 to 12 | potent cytotoxic activity | show activity against multi-drug resistant (MDR) cell lines |  |  |
| CC(=O)O[C@H]1C(=O)[C@@]2(C)[C@H]([C@H](OC(=O)c3ccccc3)[C@]3(O)C[C@H](OC(=O)[C@H](O)[C@@H](NC(=O)c4ccccc4)c4ccccc4)C(C)=C1C3(C)C)[C@]1(OC(C)=O)CO[C@@H]1C[C@@H]2O [Paclitaxel] |  |  |  | faster | more tubulin polymer was formed |
